Reference: ChEMBL document CHEMBL1139563, “Synthesis of all-trans arachidonic acid and its effect on rabbit platelet aggregation” (Bioorg Med Chem Lett, 2005)

Legend:
Assay type in all cases: functional
Oryctolagus cuniculus [1] = species on record: Oryctolagus cuniculus; test: Inhibitory activity against PAF (4e-10 M) induced aggregation of rabbit platelet at 2.1E-4 M concentration
Oryctolagus cuniculus [2] = species on record: Oryctolagus cuniculus; test: Inhibitory activity against PAF (4e-10 M) induced aggregation of rabbit platelet at 7.5E-5 M concentration
Oryctolagus cuniculus [3] = species on record: Oryctolagus cuniculus; test: Inhibitory activity against PAF (4e-10 M) induced aggregation of rabbit platelet at 1.5E-6 M concentration
Oryctolagus cuniculus [4] = species on record: Oryctolagus cuniculus; test: Inhibitory concentration against PAF (8E-10M) induced aggregation of rabbit platelet at 2.1E-4 M concentration
Oryctolagus cuniculus [5] = species on record: Oryctolagus cuniculus; test: Inhibitory activity against PAF (8E-10M) induced aggregation of rabbit platelet at 2.1E-4 M concentration
Oryctolagus cuniculus [6] = species on record: Oryctolagus cuniculus; test: Inhibitory activity against PAF (4e-10 M) induced aggregation of rabbit platelet at 1.5E-5 M concentration
Oryctolagus cuniculus [7] = species on record: Oryctolagus cuniculus; test: Inhibitory activity against PAF (4e-10 M) induced aggregation of rabbit platelet at 3E-5 M concentration

## CCCCC/C=C\C/C=C\C/C=C\C/C=C\CCCC(=O)O [ARACHIDONIC ACID]
Oryctolagus cuniculus [1]
  Inhibition: 100%
Oryctolagus cuniculus [2]
  Inhibition: 61%
Oryctolagus cuniculus [3]
  Inhibition: 0%
Oryctolagus cuniculus [4]
  IC50: ~60 µM
Oryctolagus cuniculus [5]
  Inhibition: 100%
Oryctolagus cuniculus [6]
  Inhibition: 6%
Oryctolagus cuniculus [7]
  Inhibition: 24%
